Assays:
C57BL/6 J mice = assay: RT-qPCR of H19 and Dmd in TA of treated mice; assay type: in vivo, mouse; details: male mice, n = 5
Method: Total RNA was isolated from the snap-frozen samples using the RNeasy Plus Mini Kit (Qiagen). cDNA was synthesized from 1 μg of RNA using the iScript™ cDNA Synthesis Kit (Bio-Rad). Quantitative real-time PCR was performed using SsoAdvanced™ Universal SYBR® Green Supermix (Bio-Rad).

[1] = target: T1, DMD C-terminus (ZnF domain) WT (human, UniProt P11532 3046-3685); assay: alpha assay competition; details: EMSA and RNA-protein binding: 50 mM Tris-HCl pH 7.9, 10% glycerol, 100 mM KCl, 5 mM MgCl2, 10 mM beta-ME, 0.1% NP-40, 30 C, 30 min (EMSA) or 1 h (dot blot) …
T1 sequence (P11532 3046-3685): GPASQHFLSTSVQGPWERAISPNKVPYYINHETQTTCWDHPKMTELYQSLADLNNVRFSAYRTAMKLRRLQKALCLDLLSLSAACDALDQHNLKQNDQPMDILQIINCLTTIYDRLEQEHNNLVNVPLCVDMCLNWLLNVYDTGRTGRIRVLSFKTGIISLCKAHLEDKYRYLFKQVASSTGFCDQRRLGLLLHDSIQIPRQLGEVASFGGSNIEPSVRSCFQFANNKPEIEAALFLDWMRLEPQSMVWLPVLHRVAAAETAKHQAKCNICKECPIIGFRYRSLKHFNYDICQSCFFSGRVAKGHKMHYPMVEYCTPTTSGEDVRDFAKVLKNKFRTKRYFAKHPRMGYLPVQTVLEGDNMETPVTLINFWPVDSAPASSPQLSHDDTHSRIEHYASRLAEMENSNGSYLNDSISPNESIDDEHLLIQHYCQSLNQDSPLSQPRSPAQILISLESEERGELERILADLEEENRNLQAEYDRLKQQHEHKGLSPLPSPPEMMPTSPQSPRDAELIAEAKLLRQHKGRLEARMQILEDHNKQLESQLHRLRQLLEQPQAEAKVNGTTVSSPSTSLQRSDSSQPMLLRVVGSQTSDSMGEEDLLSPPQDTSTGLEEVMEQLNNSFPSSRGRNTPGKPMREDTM

[2] = target: T1, DMD C-terminus (ZnF domain) WT; assay: alpha assay saturation; details: EMSA and RNA-protein binding: 50 mM Tris-HCl pH 7.9, 10% glycerol, 100 mM KCl, 5 mM MgCl2, 10 mM beta-ME, 0.1% NP-40, 30 C, 30 min (EMSA) or 1 h (dot blot) …
iPSC-SkMC = assay: Immunoblot of DMD, phosphorylated DMD and Ub-DMD in iPSC-SkMC; assay type: cell-based, human; details: for DMD phosphorylation / DMD protein levels / Ub-DMD: BMD iPSC-SkMC
Excerpt: The human skin fibroblasts GM09503 (healthy donor), GM02298 (BMD patient), or GM04569 (BMD patient) were obtained from the Coriell Institute and reprogramed to iPSC by Baylor Human Stem Cell Core. Clinical information is summarized in Additional file 2: Table S2. iPSCs from patients with BMD were used to study the potential molecular mechanisms of DMD stability within pathological context. iPSCs were maintained in feeder-free conditions using the mTeSR™1 medium (Stemcell technologies) on hESC-Qualified Matrigel (Corning) coated plates at 37 °C with 5% CO2. H19 knockout iPSC cell lines were generated using the CRISPR-Cas9 genome editing system, as described previously. iPSCs transfected with sgRNAs were selected with puromycin (250 ng/ml) for 7 days. Emerging iPSC colonies were picked individually and further expanded in mTeSR™1 medium. The presence of targeted gene knockout was confirmed by further genotyping characterization and PCR product sequencing.
For myogenic differentiation, iPSCs were differentiated into skeletal muscle cells using Skeletal Muscle Differentiation Kit (Genea Biocells) according to the manufacturer’s protocol. Briefly, iPSCs were plated onto a collagen I coated plate and maintained for 6–10 days in Skeletal Muscle Induction Medium (Genea Biocells) until confluent. Dissociated myogenic precursors were then plated on a collagen I coated plate and cultured in Skeletal Myoblast Medium (Genea Biocells) for 6–8 days. When confluent, cells were maintained in Myotube Medium or Myotube Fusion Medium (Genea Biocells). Cryopreserved stocks of myoblasts Genea002 were obtained from Genea Biocells. Genea002 was initially maintained in Skeletal Myoblast Medium and changed to Myotube Medium or Myotube Fusion Medium when confluent.

[3] = tested on: interaction between H19 and DMD; assay: RIP assay in iPSC-SkMC; assay type: cell-based, human; details: for interaction between H19 and DMD: iPSC-SkMC from healthy donor 09503 or BMD patient 02298; for interaction between HuR and Actin: specificity control
SNCA = details: cited from earlier work
Excerpt: (§1) SNCA plays important roles in Parkinson’s disease through mediating the aggregation of protofibrils. […] MRCKα is a se ...

MRCKα = details: cited from earlier work
Excerpt: as §1

[4] = target: T1, DMD C-terminus (ZnF domain) WT; assay: alpha assay competition; EMSA and RNA-protein binding: 50 mM Tris-HCl pH 7.9, 10% glycerol, 100 mM KCl, 5 mM MgCl2, 10 mM beta-ME, 0.1% NP-40, 30 C, 30 min (EMSA) or 1 h (dot blot); alpha assay conditions not in the material; details: protein: recombinant, tags: His, label: 32P (EMSA), single strand

Molecule: N-terminal-ELTNEIPAELTNEIPA-Linker-5'-[2'-F-U][2'-F-G][2'-F-G][2'-F-C][2'-F-C][2'-F-A][2'-F-A][2'-F-U][2'-F-G][2'-F-C][2'-F-C][2'-F-C][2'-F-U][2'-F-G][2'-F-G][2'-F-C][2'-F-U][2'-F-C][2'-F-A][2'-F-C][2'-F-A][2'-F-A][2'-F-A][2'-F-U][2'-F-A][2'-F-C][2'-F-C][2'-F-A][2'-F-C][2'-F-U]-3' [AGR-Scr, agrin peptide conjugated to scramble oligonucleotides; control, reference compound]
- expression of H19 in TA (C57BL/6 J mice): minimal effects
- expression of the Dmd transcript in TA (C57BL/6 J mice): minimal effects

Molecule: N-terminal-ELTNEIPAELTNEIPA-Linker-5'-[2’-F-C][2’-F-U][2’-F-C][2’-F-U][2’-F-U][2’-F-A][2’-F-C][2’-F-A][2’-F-A][2’-F-U][2’-F-C][2’-F-U][2’-F-G][2’-F-A][2’-F-G][2’-F-C][2’-F-U][2’-F-U][2’-F-U][2’-F-C][2’-F-C][2’-F-A][2’-F-C][2’-F-A][2’-F-G][2’-F-U][2’-F-U][2’-F-U][2’-F-C][2’-F-C]-3' [AGR-H19-Rlof, agrin peptide conjugated to H19 RNA loss-of-function mimic]
- expression of H19 in TA (C57BL/6 J mice): minimal effects
- expression of the Dmd transcript in TA (C57BL/6 J mice): minimal effects

Molecule: H19-WT mimic
- Kd [1]: 130 nM

Molecule: mouse H19 sense transcript
- Kd [2]: 78.6 nM

Molecule: human H19 sense transcript
- Kd [2]: 71.1 nM

Molecule: N#Cc1c(C(F)(F)F)c([N+](=O)[O-])c(-c2cccc([N+](=O)[O-])c2)[nH]c1=O [SC-D, SynuClean-D]
- DMD phosphorylation (iPSC-SkMC): reduced
- DMD protein levels (iPSC-SkMC): improved
- Ub-DMD (iPSC-SkMC): reduced
- phosphorylation of DMD (iPSC-SkMC; iPSC-SkMC with exogenous expression of SNCA): attenuated
- interaction between H19 and DMD [3]: significantly improved
- interaction between HuR and Actin [3]: minimal effects
- SNCA aggregation in muscle tissues (SNCA): reduces

Molecule: O=C(Nc1cn[nH]c1-c1ccccn1)c1nn(C2CCNCC2)cc1Cl [BDP5290]
- DMD phosphorylation (iPSC-SkMC): reduced
- DMD protein levels (iPSC-SkMC): improved
- Ub-DMD (iPSC-SkMC): reduced
- interaction between H19 and DMD [3]: significantly improved
- interaction between HuR and Actin [3]: minimal effects
- IC50 (MRCKα): 10 nM

Molecule: CUUUGUUUCUGAGCUUUCCUGUCUUUCCUU (ssRNA) [hH19 1951-1980 WT]
- Kd ([4]; biotin or unlabeled (alpha assay)): 116 nM

Molecule: CUUUAUUUCUGAGCUUUCCUAUCUUUCCUU (ssRNA) [hH19 1951-1980 Rgof (G1955A/G1971A)]
- Kd [4]: 14.9 nM

Reference: paper PMC8403366, “Functional significance of gain-of-function H19 lncRNA in skeletal muscle differentiation and anti-obesity effects” (Genome Medicine, 2021)
